Values quoted from earlier work in US20170007618A1, “SEROTONIN 2C RECEPTOR ANTAGONISTS TO PREVENT AND TREAT STRESS-RELATED TRAUMA DISORDERS” (Massachusetts Institute of Technology, priority 2015, published 2017).
Structures can show the parent of a compound that is named as a salt.

Experiments:
5-HT2A receptors = 5-HT2A receptors (Homo sapiens, UniProt P28223); settings: 5-HT2C versus 5-HT2A
5-HT2B receptors = 5-HT2B receptors (Homo sapiens, UniProt P41595); settings: 5-HT2C versus 5-HT2B
[1] = target: T1, cloned human 5-HT2C receptor (Homo sapiens, UniProt P28335)
T1 sequence (P28335 33-458): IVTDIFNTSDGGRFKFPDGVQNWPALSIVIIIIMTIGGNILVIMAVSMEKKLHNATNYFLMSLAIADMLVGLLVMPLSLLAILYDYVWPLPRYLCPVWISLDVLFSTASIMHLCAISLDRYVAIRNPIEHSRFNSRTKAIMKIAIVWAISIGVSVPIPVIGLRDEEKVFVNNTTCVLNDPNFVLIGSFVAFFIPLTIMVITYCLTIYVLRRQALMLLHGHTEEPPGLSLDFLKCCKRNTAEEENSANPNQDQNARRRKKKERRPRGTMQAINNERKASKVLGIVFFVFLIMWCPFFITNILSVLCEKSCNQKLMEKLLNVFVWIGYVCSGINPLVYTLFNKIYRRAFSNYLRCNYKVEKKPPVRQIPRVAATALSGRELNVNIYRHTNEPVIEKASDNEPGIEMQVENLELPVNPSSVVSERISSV

Chain of 5-HT2B receptors (P41595 whole entry): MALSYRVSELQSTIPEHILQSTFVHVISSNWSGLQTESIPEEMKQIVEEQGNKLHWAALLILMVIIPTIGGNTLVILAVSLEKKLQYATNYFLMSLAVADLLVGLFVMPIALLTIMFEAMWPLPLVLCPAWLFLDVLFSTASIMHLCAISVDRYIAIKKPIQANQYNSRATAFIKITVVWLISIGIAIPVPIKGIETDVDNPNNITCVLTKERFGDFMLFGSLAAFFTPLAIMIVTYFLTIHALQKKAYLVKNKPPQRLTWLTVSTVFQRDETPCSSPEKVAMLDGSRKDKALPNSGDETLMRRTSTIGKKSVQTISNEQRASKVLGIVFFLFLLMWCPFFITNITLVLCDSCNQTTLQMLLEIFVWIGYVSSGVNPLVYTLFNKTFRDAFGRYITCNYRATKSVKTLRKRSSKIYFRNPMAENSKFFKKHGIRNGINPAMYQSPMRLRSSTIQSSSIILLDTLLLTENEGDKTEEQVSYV
Chain of 5-HT2A receptors (P28223 whole entry): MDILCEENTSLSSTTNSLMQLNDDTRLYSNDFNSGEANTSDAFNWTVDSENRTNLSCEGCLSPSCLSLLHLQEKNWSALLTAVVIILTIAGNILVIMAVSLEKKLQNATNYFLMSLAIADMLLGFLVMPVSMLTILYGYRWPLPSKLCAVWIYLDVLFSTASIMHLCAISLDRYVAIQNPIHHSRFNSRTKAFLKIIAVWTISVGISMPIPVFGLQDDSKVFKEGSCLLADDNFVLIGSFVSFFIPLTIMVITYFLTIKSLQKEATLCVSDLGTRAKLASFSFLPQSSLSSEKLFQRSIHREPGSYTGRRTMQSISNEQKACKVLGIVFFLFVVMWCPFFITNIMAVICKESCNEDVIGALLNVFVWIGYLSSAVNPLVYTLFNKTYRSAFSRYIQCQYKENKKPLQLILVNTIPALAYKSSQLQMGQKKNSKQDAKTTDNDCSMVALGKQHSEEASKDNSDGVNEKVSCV

Row | pKi [1] | Compound | selectivity over 5-HT2A receptors (5-HT2A receptors) [fold] | selectivity over 5-HT2B receptors (5-HT2B receptors) [fold]
1 |  | COc1cc(OC)c(C(=O)CCCCN2CCC3(CC2)NC(=O)NC3=O)cc1NS(=O)(=O)c1ccc(C(F)(F)F)cc1 [RS 102221, 8-[5-(2,4-Dimethoxy-5-(4-trifluoromethylphenylsulphonamido)phenyl-5-oxopentyl]-1,3,8-triazaspiro[4.5]decane-2,4-dione hydrochloride] | 100 | 100
2 |  | Cc1cc2c(cc1Cl)N(C(=O)Nc1ccc(Oc3cccnc3C)nc1)CC2 [SB 242084, 6-chloro-5-methyl-N-{6-[(2-methylpyridin-3-yl)oxy]pyridin-3-yl}indoline-1-carboxamide] | 158 | 100
3 | 6.9 | Cl.Cn1ccc2cc(NC(=O)Nc3cccnc3)ccc21 [SB 200646A, N-(1-methyl-5-indolyl)-N′-(3-pyridyl) urea hydrochloride] |  | 
